The source of these data is patent publication US20240082281A1, “ANTI-INFLAMMATORY PHYTONUTRIENTS FOR USE IN THE TREATMENT OR PREVENTION OF SYNOVITIS” (SOCIÉTÉ DES PRODUITS NESTLÉ S.A., priority 2013, published 2024).

The structures appear in SMILES notation.

The test system of assay [1] is Dunkin-Hartley guinea pigs. The assay can be described thus: Spontaneous osteoarthritis in Dunkin-Hartley guinea pigs: histological OA score and synovial score (OARSI). The assay is classed as in vivo, guinea pig. Particulars: in diet 31 weeks (oleuropein 0.025%, rutin 0.5%, curcumin 0.25%); week 35; vs control group; p<0.01. The procedure: An in vivo study of spontaneous development of osteoarthritis in Dunkin-Hartley guinea pigs was performed. Sixty-five male Dunkin-Hartley guinea-pigs aged 3 weeks were obtained from Charles River Laboratories (Paris). Animals were housed 5 per cage in solid bottom cages and fed with standard guinea-pig diet and water ad libitum. All animals were allowed one week for acclimatization to housing conditions prior to phytonutrients administration. PVC pipes were added to the cages to improve housing conditions and minimize stress.
Substantially purified oleuropein (>90%) was purchased from Extrasynthese (Genay, France). Substantially purified rutin (>94%) was purchased from Sigma-Aldrich (Buchs, Switzerland).
Oleuropein, rutin and curcumin were integrated in the diet. […] Food intake was controlled at W9, W15, W21, W26 and W34 by weighing daily quantities of food added and remaining. […]
Paraffin embedded right knees were cut with a microtome (Leica) in 6 μm sections, in the central area not covered by meniscus, following the Cushin plane, as recommended by OARSI. […] Each compartment of the section (tibial median, tibial lateral, femoral median and femoral lateral) was scored by two blinded trained experts following OARSI recommendation and to assess the global cartilage score, each compartment score was added. […]
The results (mean±SD) were calculated for each parameter. […]

Another assay concerns PGE2. Kind of assay: PGE2 in guinea pig serum by competitive ELISA. The format is in vivo. As to conditions: in diet 31 weeks; week 35; vs control group. (In general: ELISA stands for enzyme-linked immunosorbent assay.)
For a further assay, the system named is MMP-13. Kind of assay: MMP-13 mRNA expression (real-time PCR, relative to GAPDH) in bovine primary chondrocytes in alginate beads. As to conditions: 1.5 μM each, 3 days. The assay is classed as cell-based, Bos Taurus. On the technique in general: Real-time PCR tracks product formation cycle by cycle.
The subject of the next assay is COX-2. The assay can be described thus: COX-2 mRNA expression (real-time PCR, relative to GAPDH) in bovine primary chondrocytes in alginate beads. The format is cell-based, Bos Taurus. Particulars: 1.5 μM each, 3 days.
Another assay has as its system ADAMTS-5. The assay can be described thus: ADAMTS-5 mRNA expression (real-time PCR, relative to GAPDH) in bovine primary chondrocytes in alginate beads. The assay is classed as cell-based, Bos Taurus. Particulars: 1.5 μM each, 3 days.
Assay [2] has as its system Primary osteoblasts from the calvaria of newborn Wistar rats. Kind of assay: Alkaline phosphatase (ALP) activity of primary osteoblasts. The assay is classed as cell-based, rat. As to conditions: day 15; 1 μM OLP, 1 μM HTy, 10^−9 M 1,25(OH)2D3; vs C−. Here is the method:
Alkaline phosphatase activity of osteoblasts and potentiation of effect by vitamin D were investigated. Primary osteoblasts were isolated from the calvaria of newborn Wistar rats by enzymatic digestion as described by […] et al. in 2004. During all experiments, cells were maintained in α-minimal essential medium with 10% heat-inactivated fetal bovine serum and 1% penicillin/streptomycin under conditions of 5% CO2 and 37° C. Cells were seeded on Coll-1-coated 96-well plates at a density of 3500 cells/well or in 24-well plates at a density of 3×10^4 cells/well and cultured for 2 days in α-MEM to reach confluence. Cells were then exposed to different conditions: minimal medium (C-), minimal medium containing 50 μg/ml ascorbic acid, 5 mM β-glycerophosphate (C+; optimized medium), and minimal medium supplemented with 1 μM oleuropein (OLP) and/or 1 μM hydroxytyrosol (HTy) and/or 10^-9 M 1,25 dihydroxivitamin […] dissolved in dimethylsulfoxide (DMSO) and 1,25(OH)2D3 was dissolved in ethanol. […] Enzymatic activity of alkaline phosphatase (ALP) was measured kinetically on Treatment Days 0, 5, 9, 12 and 15. […] Absorbance was measured at 405 nm and 30° C., and every 2 min 30 s for 30 min using a VarioSklan Flash microplate reader. ALP activity was expressed as micromoles of p-NPP per hour per milligram of protein. […] Data were expressed as mean±SEM. […]. […]

Setting [3] is: disease conditions (presence of IL1a 10 ng/ml), vs IL1a.
[4] abbreviates: normal conditions (absence of IL1a), vs CTL−.

Protocol for ADAMTS-5: (§1) An in vitro study of bovine primary chondrocytes in alginate beads was performed. Substantially purified oleuropein (>98%) was purchased from Extrasynthese (Genay, France). Substantially purified hydroxytyrosol (>98%) was purchased from Extrasynthese (Genay, France). Substantially purified quercetin (>97%) was purchased from HWI Analytik GmbH (Ruelzheim, Germany).
(§2) The foot of a young cow was washed to remove soil. The skin was removed from the foot. The articulation was opened transversally. Intra articular ligaments were transected. The opened articulation was washed with phosphate buffered saline. With a scalpel blade, full thickness slices of cartilage were dissected out and collected in DMEM high glucose with 10 mM Hepes and 1% Penicillin-Streptomycin. Slices of cartilage were washed in DMEM high glucose with 10 mM Hepes and 1% Penicillin-Streptomycin. […]
(§3) Total RNA was isolated from a pool of 40 beads and isolated using RNeasy kit from Qiagen. cDNA was obtained by reverse transcription of RNA with the Primescript 1st strand cDNA Synthesis kit from Takara. mRNA expression of ADAMTS-5, COX-2, MMP-13 and GAPDH were quantified in real-time PCR (SYBR Green).
(§4) Data were expressed as fold change in gene expression compared to negative control (cells cultured in complete medium).
(§5) Data was expressed as median±S.E.Median (2 experiments of 3 replicates each). […]
Protocol for COX-2: as §1, §2, §3, §4, §5
Protocol for MMP-13: as §1, §2, §3, §4, §5
Protocol for PGE2: 6 h fasting blood was obtained in the morning, under ketamine/xylazine tranquilization, at the superficial veins at the ears, each 6 weeks: W4 (=TO), W10, W16, W22, W28. At W35, blood was collected by intracardiac puncture just before euthanasia, under general anesthesia.
PGE2 was measured in guinea pig serum using a competitive ELISA kit (Arbor Assays, USA).
The results (mean±SD) were calculated for each parameter. Following a normality test, a parametric ANOVA with Dunnett's post-test or Pearson correlation was performed on all the experiments. *p<0.05; **<0.01; ***p<0.001.

Take `COc1cc(/C=C/C(=O)CC(=O)/C=C/c2ccc(O)c(OC)c2)ccc1O` [curcumin]: the “total OA score (histological cartilage score)” value in assay [1] is “decreasing cartilage degradation and histological OA score”. For the same compound, the “PGE2 levels in plasma/serum” value in the assay on PGE2 is “only non-significant effect”.

As to `O=c1c(O)c(-c2ccc(O)c(O)c2)oc2cc(O)cc(O)c12` [quercetin], the “MMP-13 mRNA expression relative to GAPDH” value in the assay with MMP-13 (setting [3]) and in the assay with MMP-13 (setting [4]) was “decrease expression of MMP-13” in each case. For the same compound, the results for the “COX-2 mRNA expression relative to GAPDH” value in the assay with COX-2 (setting [3]) and in the assay with COX-2 (setting [4]) were “decrease expression of COX-2” and “can reduce expression of COX-2”, respectively. Moreover, the “ADAMTS-5 mRNA expression relative to GAPDH” value in the assay with ADAMTS-5 (setting [3]) and in the assay with ADAMTS-5 (setting [4]) was “decrease expression of ADAMTS-5” each time.

Take `C=C1/C(=C\C=C2/CCC[C@]3(C)[C@@H]([C@H](C)CCCC(C)(C)O)CC[C@@H]23)C[C@@H](O)C[C@@H]1O` [vitamin D3, 1,25 dihydroxivitamin D3]: the “alkaline phosphatase (ALP) activity / osteoblast activity” value in assay [2] is on record as “small but statistically significant increase”.
